Assay: Determination of total drug concentration in rat brain (BBB penetration)
Format: in vivo
Conditions: male SD rat, 2 mg/kg IV infusion for 4 hours, brain collected at end of 4 hours
Protocol: BB. Example 9: Determination of Total Drug Concentration in Rat Brain
In Vivo Experimental Procedures
Infuse male SD rat at 2 mg/kg dose for 4 hours through IV administration route. Collect brain tissues at the end of 4 hours.
Sample Preparation Procedures
Dilute brain tissue by adding homogenization solvent (1:4, w/v). Homogenize diluted brain tissue samples. Extract analyte by adding organic solvent (1:4, v/v) with spiked internal standard. Vortex and centrifuge the samples. Remove supernatant and dilute with HPLC compatible solvent (1:3, v/v).
Inject diluted extract into LC-MS/MS system using reversed phase high performance liquid chromatography coupled with electrospray ionization and selected reaction monitoring. Determine the total drug concentration in brain samples by quantitating against the standard curve prepared using the same matrix.
The following data provides blood brain barrier (BBB) penetration activity for a selection of inventive compounds where were directly compared to sotorasib and adagrasib (concentration in brain measured in ng/g).
Compounds that were measured as having a total concentration in the brain of at least 60 ng/g are indicated as “+”.

Compound | BBB activity
C=CC(=O)N1CCN(c2nc(=O)n3c4c(c(-c5ccc(F)cc5F)c(C(F)(F)F)cc24)SC[C@@H]3CC2CCOCC2)[C@@H](C)C1 [Example 13-88] | − (Compounds that did not meet this threshold are indicated as “−”)
C=CC(=O)N1[C@H](C)CN(c2nc(=O)n3c4c(c(-c5ccc(F)cc5F)c(C(F)(F)F)cc24)SC[C@@H](OC)C3)C[C@@H]1C [Example 13-72] | − (Compounds that did not meet this threshold are indicated as “−”)
C=CC(=O)N1[C@H](C)CN(c2nc(=O)n3c4c(c(-c5ccc(F)cc5)c(C(F)(F)F)cc24)SC[C@@H](OC)C3)C[C@@H]1C [Example 13-40] | + (Compounds that were measured as having a total concentration in the brain of at least 60 ng/g are indicated as “+”)
C=CC(=O)N1CCN(c2nc(=O)n3c4c(c(-c5ccc(F)c(Cl)c5)c(C(F)(F)F)cc24)SC[C@@H](OC)C3)CC1 [Example 13-25] | + (Compounds that were measured as having a total concentration in the brain of at least 60 ng/g are indicated as “+”)
C=CC(=O)N1[C@H](C)CN(c2nc(=O)n3c4c(c(-c5cc(Br)c(F)cc5F)c(C(F)(F)F)cc24)SC[C@@H](OC)C3)C[C@@H]1C (atropisomer, axis not shown) [Example 13-70] | − (Compounds that did not meet this threshold are indicated as “−”)
C=CC(=O)N1[C@H](C)CN(c2nc(=O)n3c4c(c(-c5cc(Br)c(F)cc5F)c(C(F)(F)F)cc24)SCC2(COC2)C3)C[C@@H]1C [Example 13-36] | + (Compounds that were measured as having a total concentration in the brain of at least 60 ng/g are indicated as “+”)
C=CC(=O)N1C[C@H](C)N(c2nc(=O)n3c4c(c(-c5cc(Cl)c(F)cc5F)c(Cl)cc24)SC[C@@H]3CN2CCN(CC(F)F)CC2)C[C@H]1C [Example 13-56] | − (Compounds that did not meet this threshold are indicated as “−”)
[2H]C1([2H])N(C(=O)C=C)C([2H])([2H])C([2H])([2H])N(c2nc(=O)n3c4c(c(-c5cc(Cl)c(F)cc5F)c(C(F)(F)F)cc24)SCC2(COC2)C3)C1([2H])[2H] [Example 13-54] | − (Compounds that did not meet this threshold are indicated as “−”)
C=CC(=O)N1CC2C(=O)N(C)c3cnc4c(F)c(-c5c(O)cccc5F)c(Cl)cc4c3N2C[C@H]1C (stereo partly shown) [Example 13-32] | + (Compounds that were measured as having a total concentration in the brain of at least 60 ng/g are indicated as “+”)
C=CC(=O)N1[C@H](C)CN(c2nc(=O)n3c4c(c(-c5ccc(F)cc5)c(C(F)(F)F)cc24)SCC(COC)(COC)C3)C[C@@H]1C [Example 13-89] | − (Compounds that did not meet this threshold are indicated as “−”)
C=CC(=O)N1C[C@H](C)N(c2nc(=O)n3c4c(c(-c5ccc(F)cc5F)c(C(F)(F)F)cc24)SC[C@@H]3COC)C[C@H]1C (atropisomer, axis not shown) [Example 13-1] | + (Compounds that were measured as having a total concentration in the brain of at least 60 ng/g are indicated as “+”)
C=CC(=O)N1[C@H](C)CN(c2nc(=O)n3c4c(c(-c5ccc(F)cc5F)c(C(F)(F)F)cc24)SCC2(COC2)C3)C[C@@H]1C [Example 13-87] | − (Compounds that did not meet this threshold are indicated as “−”)
C=CC(=O)N1[C@H](C)CN(c2nc(=O)n3c4c(c(-c5cc(Cl)c(F)cc5F)c(C(F)(F)F)cc24)SC[C@@H]3COC)C[C@@H]1C (atropisomer, axis not shown) [Example 13-2] | + (Compounds that were measured as having a total concentration in the brain of at least 60 ng/g are indicated as “+”)
C=CC(=O)N1[C@H](C)CN(c2nc(=O)n3c4c(c(-c5ccc(F)cc5)c(C(F)(F)F)cc24)SC[C@@H](OCOC)C3)C[C@@H]1C [Example 13-83] | − (Compounds that did not meet this threshold are indicated as “−”)
C=CC(=O)N1C[C@H](C)N(c2nc(=O)n3c4c(c(-c5ccc(F)cc5F)c(C(F)(F)F)cc24)SC[C@@H]3CN2CCN(C3CC3)CC2)C[C@H]1C [Example 13-29] | + (Compounds that were measured as having a total concentration in the brain of at least 60 ng/g are indicated as “+”)
C=CC(=O)N1C[C@H](C)N(c2nc(=O)n3c4c(c(-c5ccc(F)cc5F)c(C(F)(F)F)cc24)SCC2(COC2)C3)C[C@H]1C [Example 13-51] | − (Compounds that did not meet this threshold are indicated as “−”)
C=CC(=O)N1[C@H](C)CN(c2nc(=O)n3c4c(c(-c5cc(Cl)c(F)cc5F)c(C(F)(F)F)cc24)SC[C@@H](OCC)C3)C[C@@H]1C (atropisomer, axis not shown) [Example 13-77] | − (Compounds that did not meet this threshold are indicated as “−”)

Compound | BBB activity
C=CC(=O)N1[C@H](C)CN(c2nc(=O)n3c4c(c(-c5cc(Br)c(F)cc5F)c(C(F)(F)F)cc24)SC[C@@H]3COC)C[C@@H]1C (atropisomer, axis not shown) [Example 13-4] | + (Compounds that were measured as having a total concentration in the brain of at least 60 ng/g are indicated as “+”)
C=CC(=O)N1C[C@H](C)N(c2nc(=O)n3c4c(c(-c5cc(Cl)c(F)cc5F)c(C(F)(F)F)cc24)SCC2(COC2)C3)C[C@H]1C [Example 13-31] | + (Compounds that were measured as having a total concentration in the brain of at least 60 ng/g are indicated as “+”)
C=CC(=O)N1[C@H](C)CN(c2nc(=O)n3c4c(c(-c5ccc(Cl)cc5F)c(C(F)(F)F)cc24)SC[C@@H]3COC)C[C@@H]1C (atropisomer, axis not shown) [Example 13-3] | + (Compounds that were measured as having a total concentration in the brain of at least 60 ng/g are indicated as “+”)
C=C(F)C(=O)N1[C@H](C)CN(c2nc(=O)n3c4c(c(-c5ccc(F)cc5)c(C(F)(F)F)cc24)SC[C@@H](OC)C3)C[C@@H]1C [Example 13-9] | + (Compounds that were measured as having a total concentration in the brain of at least 60 ng/g are indicated as “+”)
C=CC(=O)N1CCN(c2nc(=O)n(-c3c(C)ccnc3C(C)C)c3nc(-c4c(O)cccc4F)c(F)cc23)[C@@H](C)C1 [Example 13-92] | − (Compounds that did not meet this threshold are indicated as “−”)
C=CC(=O)N1[C@H](C)CN(c2nc(=O)n3c4c(c(-c5cc(Cl)c(F)cc5F)c(C(F)(F)F)cc24)SC[C@@H](Nc2ncccn2)C3)C[C@@H]1C (atropisomer, axis not shown) [Example 13-73] | − (Compounds that did not meet this threshold are indicated as “−”)
C=CC(=O)N1[C@H](C)CN(c2nc(=O)n3c4c(c(-c5ccc(F)c6sccc56)c(C(F)(F)F)cc24)SC[C@@H]3COC)C[C@@H]1C [Example 13-68] | − (Compounds that did not meet this threshold are indicated as “−”)
C=CC(=O)N1[C@H](C)CN(c2nc(=O)n3c4c(c(-c5ccc(F)cc5)c(C(F)(F)F)cc24)SC[C@@H](COC)C3)C[C@@H]1C [Example 13-65] | − (Compounds that did not meet this threshold are indicated as “−”)
C=CC(=O)N1[C@H](C)CN(c2nc(=O)n3c4c(c(-c5ccc(F)cc5)c(C(F)(F)F)cc24)SC[C@@H]3COC)C[C@@H]1C [Example 13-10] | + (Compounds that were measured as having a total concentration in the brain of at least 60 ng/g are indicated as “+”)
C=CC(=O)N1[C@H](C)CN(c2nc(=O)n3c4c(c(-c5ccccc5)c(C(F)(F)F)cc24)SC[C@@H]3COC)C[C@@H]1C [Example 13-20] | + (Compounds that were measured as having a total concentration in the brain of at least 60 ng/g are indicated as “+”)
C=C(F)C(=O)N1CCN(c2nc(OC[C@H]3CCCN3C)nc3c2CCN(c2cccc4cccc(Cl)c24)C3)C[C@@H]1CC#N [Example 13-75] | − (Compounds that did not meet this threshold are indicated as “−”)
C=CC(=O)N1C[C@H](C)N(c2nc(=O)n3c4c(c(-c5ccc(F)cc5F)c(Cl)cc24)OC[C@H]3CC2CCN(CC(F)F)CC2)C[C@H]1C [Example 13-59] | − (Compounds that did not meet this threshold are indicated as “−”)
C=CC(=O)N1[C@H](C)CN(c2nc(=O)n3c4c(c(-c5cc(Cl)c(F)cc5F)c(C(F)(F)F)cc24)SC[C@@H]3COCOC)C[C@@H]1C (atropisomer, axis not shown) [Example 13-62] | − (Compounds that did not meet this threshold are indicated as “−”)
C=CC(=O)N1C[C@H](C)N(c2nc(=O)n3c4c(c(-c5ccc(F)cc5)c(Cl)cc24)OCC3CN(C)C)C[C@H]1C (stereo partly shown) [Example 13-53] | − (Compounds that did not meet this threshold are indicated as “−”)
C=CC(=O)N1[C@H](C)CN(c2nc(=O)n3c4c(c(-c5cc(Cl)c(F)cc5F)c(C(F)(F)F)cc24)SC[C@@H]3CN2C[C@@H]3C[C@H]2CO3)C[C@@H]1C [Example 13-46] | + (Compounds that were measured as having a total concentration in the brain of at least 60 ng/g are indicated as “+”)
C=CC(=O)N1CCN(c2nc(=O)n3c4c(c(-c5ccc(F)cc5F)c(C(F)(F)F)cc24)SC[C@H](OC)C3)CC1 [Example 13-37] | + (Compounds that were measured as having a total concentration in the brain of at least 60 ng/g are indicated as “+”)
C=CC(=O)N1CCN(c2nc(=O)n3c4c(c(-c5ccc(F)cc5F)c(C(F)(F)F)cc24)SC[C@@H]3COC)CC1 (atropisomer, axis not shown) [Example 13-17] | + (Compounds that were measured as having a total concentration in the brain of at least 60 ng/g are indicated as “+”)
